Experimental findings from ChEMBL document CHEMBL1177733, “Mayamycin, a cytotoxic polyketide from a Streptomyces strain isolated from the marine sponge Halichondria panicea” (J Nat Prod, 2010) are described below.

Test [1] in a line: Cytotoxicity against human MEXF 462NL cells by modified propidium iodide monolayer assay.
Test [2] can be described thus: Cytotoxicity against human GXF251L cells after 24 hrs by propidium iodide monolayer assay. Conditions: GXF 251L.
A short description of test [3]: Cytotoxicity against human PAXF 1657L cells by modified propidium iodide monolayer assay.
Test [4] can be described thus: Cytotoxicity against human RXF 486L cells by modified propidium iodide monolayer assay.
The nature of test [5]: Cytotoxicity against human LXFL529 cells after 24 hrs by propidium iodide monolayer assay. The following applies: LXFL 529, 24 h.
A short description of test [6]: Cytotoxicity against human MAXF 401NL cells after 24 hrs by propidium iodide monolayer assay.
For test [7], the system named is Brevibacterium epidermidis. As to the kind of experiment: Antibacterial activity against Brevibacterium epidermidis DSM 20660 after 14-16 hrs by microtiter plate assay. The following applies: DSM 20660, 14-16 h.
Another test deals with Dermabacter hominis. As to the kind of experiment: Antibacterial activity against Dermabacter hominis DSM 7083 after 24 hrs by microtiter plate assay. The following applies: DSM 7083, 24 h.
A further test relates to HT-29. The experiment in a line: Cytotoxicity against human HT-29 cells after 24 hrs by CellTiter-BlueCell viability assay. It is filed as functional, cell-based. The following applies: HT-29, 24 h. In general terms: Alamar Blue is a resazurin reagent that responds to reducing activity.
For another test, the system named is Staphylococcus aureus. As to the kind of experiment: Antibacterial activity against Staphylococcus aureus ATCC 12600 after 48 hrs by microtiter plate assay. It is filed as functional, organism-based. Conditions: ATCC 12600, 48 h.
In another test the test system is Cutibacterium acnes. As to the kind of experiment: Antibacterial activity against Propionibacterium acnes DSM 1897 after 48 hrs by microtiter plate assay. Conditions: DSM 1897, 48 h. It is filed as functional, organism-based.
A further test has as its system Bacillus subtilis. The experiment in a line: Antibacterial activity against Bacillus subtilis DSM 347 after 14-16 hrs by microtiter plate assay. Conditions: DSM 347, 14-16 h.
Another test concerns Xanthomonas campestris. As to the kind of experiment: Antibacterial activity against Xanthomonas campestris DSM 2405 after 14-16 hrs by microtiter plate assay. The following applies: DSM 2405, 14-16 h.
For another test, the system named is Mammaliicoccus lentus. As to the kind of experiment: Antibacterial activity against Staphylococcus lentus DSM 6672 after 14-16 hrs by microtiter plate assay. The following applies: DSM 6672, 14-16 h.
The test system of the next test is Pseudomonas aeruginosa. The experiment in a line: Antibacterial activity against Pseudomonas aeruginosa DSM 50071 after 14-16 hrs by microtiter plate assay. Conditions: DSM 50071, 14-16 h.

For orientation: IC50 means the point on the concentration scale where inhibition reaches its midpoint. High values mean weaker potency in that assay, low ones greater potency in that assay.

On to `COc1cccc2c1C(=O)c1c(O)c3c(c(O)c1C2=O)C[C@@](O)(C(=O)CO)C[C@@H]3O[C@H]1C[C@H](N)[C@H](O)[C@H](C)O1` [DOXORUBICIN], for which the IC50 is less than 52 nM in test [1]; less than 52 nM in [2]; less than 52 nM in test [3]; not above 52 nM in [4]; less than 52 nM in test [5]; less than 52 nM in test [6].

`CN(C)[C@@H]1C(O)=C(C(N)=O)C(=O)[C@@]2(O)C(O)=C3C(=O)c4c(O)cccc4[C@@](C)(O)[C@H]3C[C@@H]12` [TETRACYCLINE]: the IC50 is 13900 nM in test [7] and 1200 nM in the test with Dermabacter hominis.

Turning to `CC/C(=C(\c1ccccc1)c1ccc(OCCN(C)C)cc1)c1ccccc1` [TAMOXIFEN], the IC50 with HT-29 came out at 38600 nM.

Compound `COc1c(N2C[C@@H]3CCCN[C@@H]3C2)c(F)cc2c(=O)c(C(=O)O)cn(C3CC3)c12` [MOXIFLOXACIN] registered an IC50 in the test on Staphylococcus aureus of 7500 nM.

As to `O=C(N[C@H](CO)[C@H](O)c1ccc([N+](=O)[O-])cc1)C(Cl)Cl` [CHLORAMPHENICOL], the IC50 in the test on Cutibacterium acnes came out at 1000 nM; in the test with Bacillus subtilis it was 9000 nM; in the test with Xanthomonas campestris, 3600 nM; in the test on Mammaliicoccus lentus, 2300 nM; in the test on Pseudomonas aeruginosa, 27300 nM.
